Parameters: species or system male C57BL/6 mice
Conditions: mouse, in vivo

With `CCCCCCCCCCCCCCCCCCN1/C(=C/C=C/C=C/C=C/C2=[N+](CCCCCCCCCCCCCCCCCC)c3ccccc3C2(C)C)C(C)(C)c2ccccc21.[I-]` [free DiR, 1,1-dioctadecyl-3,3,3′,3′-tetramethylindotricarbocyanine-iodide] the Visible abnormality was “No visible abnormality”.
